{"source": "patent US20060189683A1", "about": "“Parenteral formulation of mycophenolic acid, a salt or prodrug thereof” (priority 2003, published 2006)", "experiment": "Plasma levels of MPA after intravenous continuous infusion in stable renal transplant patients", "assay_type": "in vivo, human", "settings": "12 stable renal transplant patients", "procedure": "12 ml of the solution of example 2 is given to 12 stable renal transplant patients as an intravenous continuous infusion into an arm vein over 30 min with a constant infusion rate of 0.4 ml/min.\nBlood samples are taken for 36 h after dosing at the following time points: 0, 10 min, 20 min, 30 min, 45 min, 1.0 h, 1.5 h, 2.0 h, 4.0 h, 8.0 h, 12.0 h, 24.0 h, 36.0 h from the onset of infusion."}
{"smiles": "COc1c(C)c2c(c(O)c1C/C=C(\\C)CCC(=O)O)C(=O)OC2", "note": "[MPA, Mycophenolic acid]", "values": [{"measurement": "interpatient variability for AUC0-t", "setting": "12 ml of solution of example 2, i.v. infusion over 30 min", "result": "less than 25%"}, {"measurement": "half-life", "setting": "human, iv, 12 ml of the solution of example 2, 12 ml of solution of example 2, i.v. infusion over 30 min, read-out: Mean t1/2 (converted)", "result": 581, "unit": "min"}, {"measurement": "AUC(0-t)", "setting": "human, iv, 12 ml of the solution of example 2, 12 ml of solution of example 2, i.v. infusion over 30 min, sampling for 36 h, read-out: Mean MPA AUC0-t", "result": 42100, "unit": "ng·h/mL"}]}
